Source: US9187472B2 (AbbVie Inc., priority 2012, dated 2015)

Test system: PC3 cells
Experiment: NAMPT Cell Proliferation Assay
Format: cell-based
Conditions: Homo sapiens, PC-3, 120 h, 5 days incubation, cell viability by Cell Titer Glo
Outline: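 Seed PC3 at 500 cells/well (RPMI, 10% HI-FBS), attach overnight; add compound, 10-fold series 10 μM → 1×10^−5 μM; incubate 5 d, 37° C/5% CO2; luminescent viability readout; fit % inhibition sigmoidally for IC50.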

Row | IC50 | Structure (SMILES)
1 | 4.96 nM | C=CCn1nc(C)cc1C(=O)N1CCC(c2ccc(C(=O)NCc3ccn4ccnc4c3)cc2)CC1 [Example 1003, N-(imidazo[1,2-a]pyridin-7-ylmethyl)-4-(1-{[3-methyl-1-(prop-2-en-1-yl)-1H-pyrazol-5-yl]carbonyl}piperidin-4-yl)benzamide]
2 | 56.7 nM | O=C(NCc1ccn2ccnc2c1)c1ccc(C2CCN(C(=O)c3ccc4snnc4c3)CC2)cc1 [Example 1004, 4-[1-(1,2,3-benzothiadiazol-5-ylcarbonyl)piperidin-4-yl]-N-(imidazo[1,2-a]pyridin-7-ylmethyl)benzamide]
3 | 74.7 nM | CCc1nc(C(=O)N2CCC(c3ccc(C(=O)NCc4ccn5ccnc5c4)cc3)CC2)cs1 [Example 1005, 4-{1-[(2-ethyl-1,3-thiazol-4-yl)carbonyl]piperidin-4-yl}-N-(imidazo[1,2-a]pyridin-7-ylmethyl)benzamide]
4 | 73.7 nM | CC(C)c1nccc(C(=O)N2CCC(c3ccc(C(=O)NCc4ccn5ccnc5c4)cc3)CC2)n1 [Example 1006, N-(imidazo[1,2-a]pyridin-7-ylmethyl)-4-(1-{[2-(propan-2-yl)pyrimidin-4-yl]carbonyl}piperidin-4-yl)benzamide]
5 | 37.3 nM | Cc1cc(C(=O)N2CCC(c3ccc(C(=O)NCc4ccn5ccnc5c4)cc3)CC2)cnc1C [Example 1007, 4-{1-[(5,6-dimethylpyridin-3-yl)carbonyl]piperidin-4-yl}-N-(imidazo[1,2-a]pyridin-7-ylmethyl)benzamide]
6 | 2.94 nM | CC(C)C1CC(C(=O)N2CCC(c3ccc(C(=O)NCc4ccn5ccnc5c4)cc3)CC2)CCO1 (stereo not drawn) [Example 1008, N-(imidazo[1,2-a]pyridin-7-ylmethyl)-4-(1-{[2-(propan-2-yl)tetrahydro-2H-pyran-4-yl]carbonyl}piperidin-4-yl)benzamide]
7 | 1.2 nM | COc1cccc(C)c1C(=O)N1CCC(c2ccc(C(=O)NCc3ccn4ccnc4c3)cc2)CC1 [Example 1009, N-(imidazo[1,2-a]pyridin-7-ylmethyl)-4-[1-(2-methoxy-6-methylbenzoyl)piperidin-4-yl]benzamide]
8 | 5.8 nM | O=C(NCc1ccn2ccnc2c1)c1ccc(C2CCN(C(=O)c3cccc4ncsc34)CC2)cc1 [Example 1010, 4-[1-(1,3-benzothiazol-7-ylcarbonyl)piperidin-4-yl]-N-(imidazo[1,2-a]pyridin-7-ylmethyl)benzamide]
9 | 1.97 nM | CC(C)n1ccc(C(=O)N2CCC(c3ccc(NC(=O)NCc4ccn5ccnc5c4)cc3)CC2)n1 [Example 1011, 1-(imidazo[1,2-a]pyridin-7-ylmethyl)-3-[4-(1-{[1-(propan-2-yl)-1H-pyrazol-3-yl]carbonyl}piperidin-4-yl)phenyl]urea]
10 | 8.36 nM | O=C(NCc1ccn2ccnc2c1)Nc1ccc(C2CCN(C(=O)[C@@H]3COc4ccccc4O3)CC2)cc1 [Example 1012, 1-(4-{1-[(2S)-2,3-dihydro-1,4-benzodioxin-2-ylcarbonyl]piperidin-4-yl}phenyl)-3-(imidazo[1,2-a]pyridin-7-ylmethyl)urea]
11 | 2.32 nM | Cn1nc(C2CC2)cc1C(=O)N1CCC(c2ccc(NC(=O)NCc3ccn4ccnc4c3)cc2)CC1 [Example 1013, 1-(4-{1-[(3-cyclopropyl-1-methyl-1H-pyrazol-5-yl)carbonyl]piperidin-4-yl}phenyl)-3-(imidazo[1,2-a]pyridin-7-ylmethyl)urea]
12 | 2.07 nM | Cn1nc2c(c1C(=O)N1CCC(c3ccc(NC(=O)NCc4ccn5ccnc5c4)cc3)CC1)CCCC2 [Example 1014, 1-(imidazo[1,2-a]pyridin-7-ylmethyl)-3-(4-{1-[(2-methyl-4,5,6,7-tetrahydro-2H-indazol-3-yl)carbonyl]piperidin-4-yl}phenyl)urea]
13 | 1.68 nM | O=C(NCc1ccn2ccnc2c1)Nc1ccc(C2CCN(C(=O)c3onc4c3CCCC4)CC2)cc1 [Example 1015, 1-(imidazo[1,2-a]pyridin-7-ylmethyl)-3-{4-[1-(4,5,6,7-tetrahydro-2,1-benzoxazol-3-ylcarbonyl)piperidin-4-yl]phenyl}urea]
14 | 2.19 nM | O=C(NCc1ccn2ccnc2c1)Nc1ccc(C2CCN(C(=O)c3cc(Cl)ncc3F)CC2)cc1 [Example 1016, 1-(4-{1-[(2-chloro-5-fluoropyridin-4-yl)carbonyl]piperidin-4-yl}phenyl)-3-(imidazo[1,2-a]pyridin-7-ylmethyl)urea]
15 | 2.29 nM | Cc1ccc(F)c(C(=O)N2CCC(c3ccc(NC(=O)NCc4ccn5ccnc5c4)cc3)CC2)n1 [Example 1017, 1-(4-{1-[(3-fluoro-6-methylpyridin-2-yl)carbonyl]piperidin-4-yl}phenyl)-3-(imidazo[1,2-a]pyridin-7-ylmethyl)urea]
16 | 1.64 nM | O=C(NCc1ccn2ccnc2c1)Nc1ccc(C2CCN(C(=O)c3ccnc(Cl)c3F)CC2)cc1 [Example 1018, 1-(4-{1-[(2-chloro-3-fluoropyridin-4-yl)carbonyl]piperidin-4-yl}phenyl)-3-(imidazo[1,2-a]pyridin-7-ylmethyl)urea]
17 | 1.98 nM | O=C(NCc1ccn2ccnc2c1)Nc1ccc(C2CCN(C(=O)c3ncccc3Cl)CC2)cc1 [Example 1019, 1-(4-{1-[(3-chloropyridin-2-yl)carbonyl]piperidin-4-yl}phenyl)-3-(imidazo[1,2-a]pyridin-7-ylmethyl)urea]

Row | IC50 | Structure (SMILES)
18 | 0.901 nM | O=C(NCc1ccn2ccnc2c1)Nc1ccc(C2CCN(C(=O)C3(c4ccccn4)CC3)CC2)cc1 [Example 1020, 1-(imidazo[1,2-a]pyridin-7-ylmethyl)-3-[4-(1-{[1-(pyridin-2-yl)cyclopropyl]carbonyl}piperidin-4-yl)phenyl]urea]
19 | 1.11 nM | O=C(NCc1ccn2ccnc2c1)Nc1ccc(C2CCN(C(=O)c3ccn(C4CCCC4)n3)CC2)cc1 [Example 1021, 1-(4-{1-[(1-cyclopentyl-1H-pyrazol-3-yl)carbonyl]piperidin-4-yl}phenyl)-3-(imidazo[1,2-a]pyridin-7-ylmethyl)urea]
20 | 2.93 nM | O=C(NCc1ccn2ccnc2c1)Nc1ccc(C2CCN(C(=O)c3ccnn3C(F)F)CC2)cc1 [Example 1022, 1-[4-(1-{[1-(difluoromethyl)-1H-pyrazol-5-yl]carbonyl}piperidin-4-yl)phenyl]-3-(imidazo[1,2-a]pyridin-7-ylmethyl)urea]
21 | 6.87 nM | O=C(NCc1ccn2ccnc2c1)Nc1ccc(C2CCN(C(=O)C3COc4ccccc4O3)CC2)cc1 (stereo not drawn) [Example 1023, 1-{4-[1-(2,3-dihydro-1,4-benzodioxin-2-ylcarbonyl)piperidin-4-yl]phenyl}-3-(imidazo[1,2-a]pyridin-7-ylmethyl)urea]
22 | 3.52 nM | O=C(NCc1ccn2ccnc2c1)Nc1ccc(C2CCN(C(=O)C3Cc4ccccc4O3)CC2)cc1 (stereo not drawn) [Example 1024, 1-{4-[1-(2,3-dihydro-1-benzofuran-2-ylcarbonyl)piperidin-4-yl]phenyl}-3-(imidazo[1,2-a]pyridin-7-ylmethyl)urea]
23 | 0.808 nM | COC1CCC(C(=O)N2CCC(c3ccc(NC(=O)NCc4ccn5ccnc5c4)cc3)CC2)CC1 (stereo not drawn) [Example 1025, 1-(imidazo[1,2-a]pyridin-7-ylmethyl)-3-(4-{1-[(4-methoxycyclohexyl)carbonyl]piperidin-4-yl}phenyl)urea]
24 | 1.56 nM | O=C(NCc1ccn2ccnc2c1)Nc1ccc(C2CCN(C(=O)c3cccc4c3OCCO4)CC2)cc1 [Example 1026, 1-{4-[1-(2,3-dihydro-1,4-benzodioxin-5-ylcarbonyl)piperidin-4-yl]phenyl}-3-(imidazo[1,2-a]pyridin-7-ylmethyl)urea]
25 | 2.28 nM | O=C(NCc1ccn2ccnc2c1)Nc1ccc(C2CCN(C(=O)c3cncc4ccccc34)CC2)cc1 [Example 1027, 1-(imidazo[1,2-a]pyridin-7-ylmethyl)-3-{4-[1-(isoquinolin-4-ylcarbonyl)piperidin-4-yl]phenyl}urea]
26 | 7.36 nM | Cc1nc2ccc(C(=O)N3CCC(c4ccc(NC(=O)NCc5ccn6ccnc6c5)cc4)CC3)cc2o1 [Example 1028, 1-(imidazo[1,2-a]pyridin-7-ylmethyl)-3-(4-{1-[(2-methyl-1,3-benzoxazol-6-yl)carbonyl]piperidin-4-yl}phenyl)urea]
27 | 0.272 nM | Cc1cc(C(=O)N2CCC(c3ccc(NC(=O)NCc4ccn5ccnc5c4)cc3)CC2)n(C(C)(C)C)n1 [Example 1029, 1-(4-{1-[(1-tert-butyl-3-methyl-1H-pyrazol-5-yl)carbonyl]piperidin-4-yl}phenyl)-3-(imidazo[1,2-a]pyridin-7-ylmethyl)urea]
28 | 2.04 nM | N#CC1(C(=O)N2CCC(c3ccc(NC(=O)NCc4ccn5ccnc5c4)cc3)CC2)CCCC1 [Example 1030, 1-(4-{1-[(1-cyanocyclopentyl)carbonyl]piperidin-4-yl}phenyl)-3-(imidazo[1,2-a]pyridin-7-ylmethyl)urea]
29 | 7.73 nM | O=C(NCc1ccn2ccnc2c1)Nc1ccc(C2CCN(C(=O)c3cnnc4ccccc34)CC2)cc1 [Example 1031, 1-{4-[1-(cinnolin-4-ylcarbonyl)piperidin-4-yl]phenyl}-3-(imidazo[1,2-a]pyridin-7-ylmethyl)urea]
30 | 8.88 nM | O=C(NCc1ccn2ccnc2c1)Nc1ccc(C2CCN(C(=O)c3ccc4cccnc4c3)CC2)cc1 [Example 1032, 1-(imidazo[1,2-a]pyridin-7-ylmethyl)-3-{4-[1-(quinolin-7-ylcarbonyl)piperidin-4-yl]phenyl}urea]
31 | 1.97 nM | N#Cc1ccc(F)c(C(=O)N2CCC(c3ccc(NC(=O)NCc4ccn5ccnc5c4)cc3)CC2)c1 [Example 1033, 1-{4-[1-(5-cyano-2-fluorobenzoyl)piperidin-4-yl]phenyl}-3-(imidazo[1,2-a]pyridin-7-ylmethyl)urea]
32 | 6.29 nM | O=C(NCc1ccn2ccnc2c1)Nc1ccc(C2CCN(C(=O)c3cc(C4CC4)no3)CC2)cc1 [Example 1034, 1-(4-{1-[(3-cyclopropyl-1,2-oxazol-5-yl)carbonyl]piperidin-4-yl}phenyl)-3-(imidazo[1,2-a]pyridin-7-ylmethyl)urea]
33 | 3.04 nM | O=C(NCc1ccn2ccnc2c1)Nc1ccc(C2CCN(C(=O)c3cnc4c(c3)CCCC4)CC2)cc1 [Example 1035, 1-(imidazo[1,2-a]pyridin-7-ylmethyl)-3-{4-[1-(5,6,7,8-tetrahydroquinolin-3-ylcarbonyl)piperidin-4-yl]phenyl}urea]
